Experimental data reported in article PMC7070908, “Structure-Guided Identification of Black Cohosh (Actaea racemosa) Triterpenoids with In Vitro Activity against Multiple Myeloma” (Molecules, 2020).
Converted amounts (≈) assume the structure as drawn. “And” between values parts separate entries of the source, which are not always exact repeats. Equal values may be shown once.

Key:
U266 myeloma cell line = assay: Cytotoxicity, flow cytometry (AnnexinV/propidium iodide negativity), U266; assay type: cell-based, human; details: for activity on U266 (in words): up to 37.5 µM
Procedure: (§1) Induction of apoptosis was measured in myeloma cell lines NCI-H929, OPM-2, and U266 as well as in peripheral blood mononuclear cells (PBMCs) of healthy donors by flow cytometry using established protocols thereby staining the cells with AnnexinV-fluorescein isothiocyanate and propidium iodide. Bortezomib (Eubio, Vienna, Austria) was used as positive control. Cell lines were purchased from DSMZ (Braunschweig, Germany) and routinely fingerprinted and tested for mycoplasma negativity. All cells (cell lines and PBMC) were grown in RPMI-1640 medium (Life Technologies, Paisley, UK) supplemented with 10% fetal calf serum (FCS; PAA, Linz, Austria), L-glutamine 100 µg/mL, and penicillin-streptomycin 100 U/mL. PBMCs from healthy donors were used after obtaining written informed consent at the University Hospital Salzburg (ethics committee approval 415-E/1287/6-2011). Cells were subjected to Ficoll separation (Ficoll PaqueTM) and incubated in RPMI-1640 Media with supplements as above. In brief, 0.5 × 10^6 myeloma cells/mL or similar numbers of PMBCs were incubated for 24 h and 48 h with or without the tested compounds dissolved in dimethyl sulfoxide at different concentrations. At least three analyses in triplicates were performed for each cell line and a solvent control was always included. As a positive control, the proteasome inhibitor bortezomib (BTZ) was used at concentrations of 10 and 5 nM. The extent of non-apoptotic cells (AnnexinV/propidium iodide negativity) was calculated as percentage of viable cells in respect to the untreated control. Data are shown as mean percentage of viable cells and standard error of the mean (SEM) (error bars).

[1] = test system: peripheral blood mononuclear cells (PBMCs) of healthy donors; assay: Cytotoxicity, flow cytometry (AnnexinV/propidium iodide negativity), PBMC of healthy donors; assay type: cell-based, human
Procedure: as §1

OPM-2 myeloma cell line = assay: Cytotoxicity, flow cytometry (AnnexinV/propidium iodide negativity), OPM-2; assay type: cell-based, human; details: for activity on OPM-2 (in words): up to 37.5 µM
Procedure: as §1

[2] = test system: NCI-H929 myeloma cell line; assay: Cytotoxicity, flow cytometry (AnnexinV/propidium iodide negativity), NCI-H929; assay type: cell-based, human; details: for activity on NCI-H929 (in words): up to 37.5 µM
Procedure: as §1

MCF7 breast cancer cells = test system: MCF7 breast cancer cells; design: method as in PMID 14758092; details: incubation times of 96 h; cited from earlier work
[3] = test system: doxorubicin-resistant-MCF7 (R-MCF7) cells; design: method as in PMID 20564500; details: cited from earlier work; for IC50 R-MCF7: doxorubicin-resistant MCF7, 48 h of incubation
MCF7 cells = test system: MCF7 cells; design: method as in PMID 20564500; details: cited from earlier work; for IC50 MCF7: 48 h of incubation
[4] = 12.5 µM, 24 h, second round (Table 3)
[5] = 25 µM, 24 h, second round (Table 3)
[6] = 37.5 µM, 24 h, second round (Table 3)
[7] = 5 nM, 24 h, positive control (Table 3)
[8] = 10 nM, 24 h, positive control (Table 3)
[9] = 25 µM, 24 h, % of untreated control, mean ± SEM (Table 1)
[10] = 25 µM, 48 h, % of untreated control, mean ± SEM (Table 2)
[11] = 50 µM, 24 h, % of untreated control, mean ± SEM (Table 1)

Row | Compound | MM Cells % Alive U266 (U266 myeloma cell line; [4]) [%] | MM Cells % Alive U266 (U266 myeloma cell line; [5]) [%] | MM Cells % Alive U266 (U266 myeloma cell line; [6]) [%] | PBMC % Alive [1, 4] [%] | PBMC % Alive [1, 5] [%] | PBMC % Alive [1, 6] [%] | MM Cells % Alive OPM-2 (OPM-2 myeloma cell line; [4]) [%] | MM Cells % Alive OPM-2 (OPM-2 myeloma cell line; [5]) [%] | MM Cells % Alive OPM-2 (OPM-2 myeloma cell line; [6]) [%] | MM Cells % Alive NCI-H929 [2, 4] [%] | MM Cells % Alive NCI-H929 [2, 5] [%] | MM Cells % Alive NCI-H929 [2, 6] [%] | activity on U266 (in words) (U266 myeloma cell line; 24 h) | activity on OPM-2 (in words) (OPM-2 myeloma cell line; 24 h) | activity on NCI-H929 (in words) ([2]; 24 h) | other results
1 | COC(C)(C)C1OC23OC1CC(C)C2C1(C)CCC24CC25CCC(OC2OCC(O)C(O)C2O)C(C)(C)C5CCC4C1(C)C3O [Compound 8, 25-O-methyl-cimigenol-3-O-β-D-xylopyranoside] | 102.0 ± 3.0 | 97.5 ± 3.8 | 81.0 ± 11.9 | 104.3 ± 0.3 | 96.3 ± 1.7 | 64.3 ± 8.0 | 97.8 ± 2.1 | 84.3 ± 4.5 | 27.0 ± 9.4 | 84.8 ± 5.0 | 31.3 ± 6.6 | 5.0 ± 1.7 |  |  |  | IC50 U266 (U266 myeloma cell line; incubation for 24 h): 31.1 µg/mL (≈ 49 µM); IC50 PBMC ([1]; incubation for 24 h): 26.0 µg/mL (≈ 41 µM); IC50 OPM-2 (OPM-2 myeloma cell line; incubation for 24 h): 20.7 µg/mL (≈ 32.6 µM); IC50 NCI-H929 ([2]; incubation for 24 h): 14.2 µg/mL (≈ 22.4 µM)
2 | CC(=O)O[C@@H]1C[C@@]23C[C@@]24CC[C@H](O[C@@H]2OC[C@@H](O)[C@H](O)[C@H]2O)C(C)(C)[C@@H]4CC=C3[C@]2(C)C[C@@H]3O[C@@]4(O)[C@H](OC(C)(C)[C@H]4O)[C@@H](C)[C@@H]3[C@@]12C [cimiracemoside A] |  |  |  |  |  |  |  |  |  |  |  |  |  |  |  | IC50 growth inhibition of MCF7 breast cancer cells (MCF7 breast cancer cells): 41 µg/mL
3 | C=C(C)C1OC23OC1CC(C)C2C1(C)CCC24CC25CCC(OC2OCC(O)C(O)C2O)C(C)(C)C5CCC4C1(C)C3O [Compound 9, 25-anhydrocimigenol-3-O-α-L-arabinopyranoside] | 101.5 ± 5.1 | 101.8 ± 4.3 | 101.3 ± 3.3 |  |  |  | 95.8 ± 2.4 | 100.0 ± 1.9 | 104.0 ± 4.7 | 96.0 ±1.0 | 92.8 ± 1.7 | 92.0 ± 1.5 | no effect | no effect | no effect | 
4 | CC(=O)O[C@@H]1C[C@@]23C[C@@]24CC[C@H](O[C@@H]2OC[C@@H](O)[C@H](O)[C@H]2O)C(C)(C)[C@@H]4CC[C@H]3[C@]2(C)C[C@@H]3O[C@@]4(C[C@@H](C)[C@@H]3[C@@]12C)OC[C@@]1(C)O[C@@H]41 [23-epi-26-deoxyactein] |  |  |  |  |  |  |  |  |  |  |  |  |  |  |  | IC50 growth inhibition of MCF7 breast cancer cells (MCF7 breast cancer cells): 21 µg/mL
5 | CC(C)C[C@H](NC(=O)[C@H](Cc1ccccc1)NC(=O)c1cnccn1)B(O)O [BTZ, bortezomib, reference compound] |  |  |  |  |  |  |  |  |  |  |  |  |  |  |  | MM Cells % Alive U266 (U266 myeloma cell line; [7]): 80.7 ± 14.1%; MM Cells % Alive U266 (U266 myeloma cell line; [8]): 25.0 ± 8.3%; MM Cells % Alive OPM-2 (OPM-2 myeloma cell line; [7]): 85.3 ± 7.6%; MM Cells % Alive OPM-2 (OPM-2 myeloma cell line; [8]): 66.0 ± 9.4%; MM Cells % Alive NCI-H929 [2, 7]: 3.0 ± 1.0%; MM Cells % Alive NCI-H929 [2, 8]: 6.3 ± 5.4%
6 | CC(=O)OC(C)(C)C1OC23OC1CC(C)C2C1(C)CCC24CC25CCC(OC2OCC(O)C(O)C2O)C(C)(C)C5CCC4C1(C)C3O [Compound 4, 25-O-acetylcimigenol-3-O-β-D-xylopyranoside] | 91.8 ± 4.2 | 87.8 ± 2.0 | 88.0 ± 1.2 | 96.7 ± 2.9 | 72.7 ± 5.4 | 28.7 ± 5.9 | 94.8 ± 5.3 | 90.3 ± 3.7 | 56.0 ± 13.0 | 84.3 ± 8.6 | 59.5 ± 8.7 | 27.8 ± 6.6 |  |  |  | IC50 U266 (U266 myeloma cell line; incubation for 24 h): >37.5 µg/mL; IC50 PBMC ([1]; incubation for 24 h): 20.7 µg/mL (≈ 31.2 µM); IC50 OPM-2 (OPM-2 myeloma cell line; incubation for 24 h): 26.3 µg/mL (≈ 39.7 µM); IC50 R-MCF7 [3]: 4.8 µg/mL (≈ 7.24 µM); IC50 MCF7 (MCF7 cells): 4.3 µg/mL (≈ 6.49 µM); IC50 NCI-H929 ([2]; incubation for 24 h): 20.3 µg/mL (≈ 30.6 µM)
7 | CC1CC2OC3(OC2C(C)(C)O)C1C1(C)CCC24CC25CCC(OC2OCC(O)C(O)C2O)C(C)(C)C5CCC4C1(C)C3O [Compound 6, cimigenol-3-O-β-D-xylopyranoside] | 94.8 ± 3.0 | 94.5 ± 3.5 | 93.5 ± 3.2 |  |  |  | 101.7 ± 0.9 | 99.5 ± 1.8 | 100.5 ± 2.4 | 98.5 ± 0.8 | 91.8 ± 3.4 | 88.5 ± 0.3 | no activity | no activity | no activity | activity against R-MCF7 (in words) [3]: no activity; activity against MCF7 (in words) (MCF7 cells): no activity
8 | CC(=O)OC(C)(C)C1OC23OC1CC(C)C2C1(C)CCC24CC25CCC(OC2OCC(O)C(O)C2O)C(C)(C)C5CCC4C1(C)C3O [Compound 3, 25-O-acetylcimigenol-3-O-α-L-arabinopyranoside] | 95.0 ± 2.4 | 77.8 ± 4.6 | 48.0 ± 7.4 | 101.7 ± 0.3 | 98.3 ± 2.0 | 58.7 ± 12.7 | 99.5 ± 2.0 | 88.8 ± 1.8 | 70.8 ± 11.5 | 93.3 ± 1.8 | 59.5 ± 7.8 | 11.8 ± 4.3 |  |  |  | MM Cells % Alive U266 (U266 myeloma cell line; [9]): 89.3 ± 3.2%; MM Cells % Alive U266 (U266 myeloma cell line; [10]): 66.8 ± 9.5%; MM Cells % Alive U266 (U266 myeloma cell line; [11]): 13% and 12.9 ± 3.5%; IC50 (U266 myeloma cell line; Homo sapiens, U-266, 24 h, incubation for 24 h): 24.7 µg/mL (≈ 37.3 µM); PBMC % Alive [1, 9]: 86.5 ± 2.7%; PBMC % Alive [1, 10]: 76.2 ± 1.8%; PBMC % Alive [1, 11]: 6.1 ± 1.5%; PBMC % Alive ([1]; 50 µM, 48 h, % of untreated control, mean ± SEM (Table 2)): 4.6 ± 0.1%; IC50 ([1]; Homo sapiens, PBMC, 24 h, incubation for 24 h): 25.9 µg/mL (≈ 39.1 µM); MM Cells % Alive OPM-2 (OPM-2 myeloma cell line; [9]): 63.8 ± 12%; MM Cells % Alive OPM-2 (OPM-2 myeloma cell line; [10]): 43.4 ± 9.3%; MM Cells % Alive OPM-2 (OPM-2 myeloma cell line; [11]): 20% and 19.7 ± 5.7%; IC50 (OPM-2 myeloma cell line; Homo sapiens, OPM-2, 24 h, incubation for 24 h): > 37.5 µg/mL; IC50 R-MCF7 [3]: 5.3 µg/mL (≈ 8 µM); IC50 MCF7 (MCF7 cells): 4.0 µg/mL (≈ 6.03 µM); MM Cells % Alive NCI-H929 [2, 9]: 52.9 ± 7.1%; MM Cells % Alive NCI-H929 [2, 10]: 18.9 ± 3.3%; MM Cells % Alive NCI-H929 [2, 11]: 10% and 10.3 ± 2.8%; IC50 ([2]; Homo sapiens, NCI-H929, 24 h, incubation for 24 h): 18.1 µg/mL (≈ 27.3 µM)
9 | CC1CC2OC3(OC2C(C)(C)O)C1C1(C)CCC24CC25CCC(OC2OCC(O)C(O)C2O)C(C)(C)C5CCC4C1(C)C3O [Compound 5, cimigenol-3-O-α-L-arabinopyranoside] | 95.0 ± 3.1 | 95.8 ± 2.8 | 93.5 ± 3.5 |  |  |  | 99.8 ± 2.0 | 103.3 ± 1.4 | 103.5 ± 1.3 | 98.8 ± 0.9 | 97.0 ± 1.2 | 96.3 ± 1.3 | no activity | no activity | no activity | 
